Results taken from patent US20130172387A1, “METHOD AND COMPOSITION FOR PROLONGING ANALGESIC EFFECT OF LOCAL ANESTHETIC” (priority 2011, published 2013).
“And” between values parts separate entries of the source, which are not always exact repeats. Identical values can stand only once.

Tests used:
[1] = test system: cutaneous trunci muscle reflex (CTMR); assay: Noxious pinprick test of the cutaneous trunci muscle reflex after subcutaneous injection; type: in vivo; conditions: rat; for time of complete recovery (CRT): s.c. 0.6 ml, mean ± SE, n=8
Procedure: Subcutaneous Injection The animal experimental protocol was approved by the Animal Committee of Mackay Memorial Hospital in Taipei, Taiwan. Male Sprague-Dawley rats were purchased from BioLasco (Taipei, Taiwan) and kept in an air-conditioned animal shelter at room temperature of 22° C. to 24° C. with controlled level of humidity (40% to 50%) in a 12-hour light-dark cycle. […] The rats were randomly assigned to treatments with a size of 8 rats per group. All rats were briefly anesthetized by inhalation of 2% isoflurane (Abbott Laboratories, North Chicago, Ill.). The back of each rat was carefully shaved with a razor and was left with no injuries. After the induction of inhalation anesthesia, the drugs were injected subcutaneously in the thoracolumbar region. The injections caused a circular elevation of the skin, creating a wheal of approximately 2 cm in diameter. This wheal was marked within a minute after the injection.
Neurobehavioral Examination Before the experiments were conducted, the animals were handled daily for up to 14 days to familiarize them with the behavioral investigator, the experimental environment, and the specific experimental protocols. A noxious pinprick test was used to measure the analgesic effect of the cutaneous trunci muscle reflex (CTMR), which is characterized by reflex movements of the skin over the back produced by twitches of the lateral thoracispinal muscles in response to local dorsal cutaneous stimulations. The von Frey filament (26.0 g) was affixed to an 18-gauge needle to standardize the stimulus intensity and to test the neurobehavioral examination. Six pinpricks were applied in the marked areas every 15 minutes after each drug administration until the rats were fully recovered from the block. Six pinpricks per test were sufficient enough to obtain reproducible results in rats among different study groups, while avoiding injury of the skin during repeated testing. […] The total absence of CTMR response was defined as a complete blockade with 100% of maximum possible effect (MPE). Three CTMR pinprick responses indicated a 50% of MPE, while 0% of observed MPE would show the presence of all six CTMR pinprick responses. The complete recovery time (CRT) is defined as the time period when the presence of all six pinprick responses returned with 0% of MPE. All CTMR responses observed in rats were under stable vital signs. To determine skin irritation (such as necrosis, swelling and inflammation), assessment in any macroscopic changes of the skin color and texture was further studied. Systemic side effects such as sedation, agitation, and respiratory distress were also evaluated. The observer was not informed about the drugs used.
Statistical Analysis The statistical difference between the treatment groups was tested by using Mann-Whitney Rank Sum Test to evaluate the analgesic degree of MPE. Microcal Origin version 7 (Microcal Software, Northampton, Mass.) and SigmaStat (Systat Software, Inc., Chicago, Ill.) were used to calculate the values of MPE, creating figures and analyzing statistics. A p value of less than 0.05 was defined significant. All data are presented as mean±SE.

subcutaneous tissue = conditions: rat, in vivo, sc
Procedure: Histology To determine the toxicity of the present composition to the subcutaneous tissue, skin was excised from the injected area of anesthetized rats two days later. The skin cross-section samples were fixed in 4% paraformaldehyde overnight and stained with hematoxylin and eosin.
Tissue inflammation was evaluated by the level of lymphocytic infiltrations in the cinnamaldehyde-injected subcutaneous layer of rats' cross-sectioned skin at 48 h.

skin = conditions: rat, in vivo, sc
Procedure: Neurobehavioral Examination Before the experiments were conducted, the animals were handled daily for up to 14 days to familiarize them with the behavioral investigator, the experimental environment, and the specific experimental protocols. A noxious pinprick test was used to measure the analgesic effect of the cutaneous trunci muscle reflex (CTMR), which is characterized by reflex movements of the skin over the back produced by twitches of the lateral thoracispinal muscles in response to local dorsal cutaneous stimulations. […] Three CTMR pinprick responses indicated a 50% of MPE, while 0% of observed MPE would show the presence of all six CTMR pinprick responses. The complete recovery time (CRT) is defined as the time period when the presence of all six pinprick responses returned with 0% of MPE. […] To determine skin irritation (such as necrosis, swelling and inflammation), assessment in any macroscopic changes of the skin color and texture was further studied. Systemic side effects such as sedation, agitation, and respiratory distress were also evaluated. The observer was not informed about the drugs used.

[2] = cinnamaldehyde 0.5% alone, or given 10 min before lidocaine 0.5% / bupivacaine 0.0625%
[3] = cinnamaldehyde 1% alone, or given 10 min before lidocaine 0.5% / bupivacaine 0.0625%
[4] = cinnamaldehyde 2% alone, or given 10 min before lidocaine 0.5% / bupivacaine 0.0625%

SMILES | time of complete recovery (CRT) ([1]; cinnamaldehyde 0% (vehicle): lidocaine 0.5% or bupivacaine 0.0625% alone) | time of complete recovery (CRT) [1, 2] | time of complete recovery (CRT) [1, 3] | time of complete recovery (CRT) [1, 4] | duration of complete nociceptive block ([1]; s.c., bupivacaine 0.0625% alone) | complete nociceptive block to pinpricks ([1]; s.c., cinnamaldehyde 0.5%, 1%, 2% followed 10 min later by bupivacaine 0.0625%) | analgesic effect, dose dependence ([1]; s.c., cinnamaldehyde alone at 0.5%, 1% and 2%) | lymphocytic infiltration (tissue inflammation) in subcutaneous layer (subcutaneous tissue) | skin irritation (skin) | duration of complete nociceptive block to pinpricks ([1]; s.c., 2% cinnamaldehyde followed 10 min later by 0.5% lidocaine) | analgesic effect, dose dependence ([1]; s.c., cinnamaldehyde 0.5%, 1%, 2% followed by 0.5% lidocaine)
CCCCN1CCCCC1C(=O)Nc1c(C)cccc1C (centres unmarked) [Bupivacaine, 1-butyl-N-(2,6-dimethylphenyl)piperidine-2-carboxamide] | 91.88 ± 4.43 min and 91.88 min | 78.75 min | 116.25 ± 4.70 min and 116.25 min | 159.38 ± 6.30 min and 159.38 min | approximately 45 minutes | increased |  |  |  |  | 
O=CC=Cc1ccccc1 [Cinnamaldehyde, cinnamaldehyde] |  | 43.13 ± 5.97 min and 43.13 min | 63.75 ± 4.70 min and 63.75 min | 95.63 ± 3.95 min and 95.63 min |  |  | dose-dependent analgesic effect | More lymphocytic infiltrations | neither obvious change of skin color nor injury was observed |  | 
CCN(CC)CC(=O)Nc1c(C)cccc1C [Lidocaine, 2-(diethylamino)-N-(2,6-dimethylphenyl)acetamide] |  | 65.63 ± 2.74 min and 65.63 min | 106.88 ± 3.40 min and 106.88 min | 157.50 ± 5.67 min and 157.50 min |  |  |  |  |  | about 15 minutes | Dose dependent analgesic effect
